According to patent publication US20070010671A1, “Novel quinazoline derivatives and methods of treatment related to the use thereof” (priority 2003, published 2007):

Target: MCH receptor (Homo sapiens, UniProt Q99705)
Test: High throughput functional screening FLIPR/FDSS6000: inhibition of MCH-evoked intracellular Ca2+ changes
Assay type: cell-based
Settings: class by percent of control at 10^-7 M or IC50
How it was run: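 Constitutively active non-endogenous MCH-R cells; Fluo4-AM 4 μM, 2.5 mM probenecid, 1 hr, 37° C; cpd 3 min, 37° C; MCH 50 nM (antagonist mode); kinetic Ca2+ read Ex488/Em530, 290 s.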

Row | SMILES | class
1 | C/C=C/CNC(=S)N[C@H]1CC[C@@H](Nc2nc(N(C)C)c3ccccc3n2)CC1 [compound 327] | 3 (Class 3: The value of percent of control at 10^−7 M was more than 60% or the value of IC50 was more than 200 nM.)
2 | CN(C)c1nc(N[C@H]2CC[C@@H](CNC(=O)Nc3ccc4c(c3)OCCO4)CC2)nc2ccccc12 [compound 758] | 3 (Class 3: The value of percent of control at 10^−7 M was more than 60% or the value of IC50 was more than 200 nM.)
3 | CN(C)c1nc(N[C@H]2CC[C@@H](CNC(=S)NCCc3ccccc3)CC2)nc2ccccc12 [compound 627] | 3 (Class 3: The value of percent of control at 10^−7 M was more than 60% or the value of IC50 was more than 200 nM.)
4 | COc1ccc(NC(=O)NC[C@H]2CC[C@@H](Nc3nc(N(C)C)c4ccccc4n3)CC2)cc1Cl [compound 530] | 3 (Class 3: The value of percent of control at 10^−7 M was more than 60% or the value of IC50 was more than 200 nM.)
5 | CN(C)c1nc(N[C@H]2CC[C@@H](CNC(=S)Nc3cccc4ccccc34)CC2)nc2ccccc12 [compound 611] | 3 (Class 3: The value of percent of control at 10^−7 M was more than 60% or the value of IC50 was more than 200 nM.)
6 | CN(C)c1nc(N[C@H]2CC[C@@H](CNC(=O)Nc3cc(Cl)c(Cl)cc3Cl)CC2)nc2ccccc12 [compound 474] | 3 (Class 3: The value of percent of control at 10^−7 M was more than 60% or the value of IC50 was more than 200 nM.)
7 | Cc1ccc([N+](=O)[O-])c(NC(=O)NC[C@H]2CC[C@@H](Nc3nc(N(C)C)c4ccccc4n3)CC2)c1C [compound 473] | 1 (Class 1: The value of percent of control at 10^−7 M was less than 40% or the value of IC50 was less than 50 nM.)
8 | CN(C)c1nc(N[C@H]2CC[C@@H](CNC(=O)Nc3ccsc3)CC2)nc2ccccc12 [compound 764, N-[(cis-4-{[4-(dimethylamino)quinazolin-2-yl]amino}cyclohexyl)methyl]-N′-3-thienylurea] | 2 (Class 2: The value of percent of control at 10^−7 M was from 40% to 60% or the value of IC50 was from 50 nM to 200 nM.)
9 | CN(C)c1nc(N[C@H]2CC[C@@H](CNC(=S)NCc3ccccc3)CC2)nc2ccccc12 [compound 580] | 3 (Class 3: The value of percent of control at 10^−7 M was more than 60% or the value of IC50 was more than 200 nM.)
10 | CCCCCNC(=O)NC[C@H]1CC[C@@H](Nc2nc(N(C)C)c3ccccc3n2)CC1 [compound 454, N-[(cis-4-{[4-(dimethylamino)quinazolin-2-yl]amino}cyclohexyl)methyl]-N′-pentylurea] | 2 (Class 2: The value of percent of control at 10^−7 M was from 40% to 60% or the value of IC50 was from 50 nM to 200 nM.)
11 | COC(=O)c1cc(NC(=O)N[C@H]2CC[C@@H](Nc3nc(N(C)C)c4ccccc4n3)CC2)cc(C(=O)OC)c1 [compound 331] | 3 (Class 3: The value of percent of control at 10^−7 M was more than 60% or the value of IC50 was more than 200 nM.)
12 | COc1cc(OC)c(NC(=S)N[C@H]2CC[C@@H](Nc3nc(N(C)C)c4ccccc4n3)CC2)cc1Cl [compound 324, N-(5-chloro-2,4-dimethoxyphenyl)-N′-(cis-4-{[4-(dimethylamino)quinazolin-2-yl]amino}cyclohexyl)thiourea] | 1 (Class 1: The value of percent of control at 10^−7 M was less than 40% or the value of IC50 was less than 50 nM.)
13 | CN(C)c1nc(N[C@H]2CC[C@@H](CNC(=S)Nc3ccc(OC(F)F)cc3)CC2)nc2ccccc12 [compound 653] | 3 (Class 3: The value of percent of control at 10^−7 M was more than 60% or the value of IC50 was more than 200 nM.)
14 | Cc1cc(F)ccc1NC(=S)N[C@H]1CC[C@@H](Nc2nc(N(C)C)c3ccccc3n2)CC1 [compound 316, N-(cis-4-{[4-(dimethylamino)quinazolin-2-yl]amino}cyclohexyl)-N′-(4-fluoro-2-methylphenyl)thiourea] | 1 (Class 1: The value of percent of control at 10^−7 M was less than 40% or the value of IC50 was less than 50 nM.)
15 | CN(C)c1nc(N[C@H]2CC[C@@H](CNC(=S)NCC(c3ccccc3)c3ccccc3)CC2)nc2ccccc12 [compound 714] | 3 (Class 3: The value of percent of control at 10^−7 M was more than 60% or the value of IC50 was more than 200 nM.)
16 | CN(C)c1nc(N[C@H]2CC[C@@H](CNC(=S)Nc3cc(Br)ccc3Br)CC2)nc2ccccc12 [compound 719] | 3 (Class 3: The value of percent of control at 10^−7 M was more than 60% or the value of IC50 was more than 200 nM.)

Same assay, conditions: class by percent of control at 10^-7 M or by IC50; read-out: class

Row | SMILES | IC50 [nM]
17 | CN(C)c1nc(N[C@H]2CC[C@@H](NC(=S)NCc3ccco3)CC2)nc2ccccc12 [compound 174] | > 200
18 | CN(C)c1nc(N[C@H]2CC[C@@H](NC(=O)Nc3cccc(C(F)(F)F)c3)CC2)nc2ccccc12 [compound 56] | > 200
19 | CN(C)c1nc(N[C@H]2CC[C@@H](NC(=O)Nc3cccc(C(F)(F)F)c3F)CC2)nc2ccccc12 [compound 96] | > 200
20 | CCc1cccc(C(C)C)c1NC(=O)N[C@H]1CC[C@@H](Nc2nc(N(C)C)c3ccccc3n2)CC1 [compound 94, N-(cis-4-{[4-(dimethylamino)quinazolin-2-yl]amino}cyclohexyl)-N′-(2-ethyl-6-isopropylphenyl)urea] | < 50
21 | CN(C)c1nc(N[C@H]2CC[C@@H](NC(=S)Nc3ccccc3)CC2)nc2ccccc12 [compound 191] | > 200
22 | CCc1ccc(NC(=O)N[C@H]2CC[C@@H](Nc3nc(N(C)C)c4ccccc4n3)CC2)cc1 [compound 31, N-(cis-4-{[4-(dimethylamino)quinazolin-2-yl]amino}cyclohexyl)-N′-(4-ethylphenyl)urea] | 50 to 200
23 | CN(C)c1nc(N[C@H]2CC[C@@H](NC(=O)NC3CCCCC3)CC2)nc2ccccc12 [compound 16, N-cyclohexyl-N′-(cis-4-{[4-(dimethylamino)quinazolin-2-yl]amino}cyclohexyl)urea] | 50 to 200
24 | Cc1cccc(CNC(=O)N[C@H]2CC[C@@H](Nc3nc(N(C)C)c4ccccc4n3)CC2)c1 [compound 49] | > 200

Same assay, conditions: class by percent of control at 10^−7 M or by IC50; read-out: class

Row | SMILES | IC50 [nM]
25 | CN(C)c1nc(N[C@H]2CC[C@@H](C(=O)NCc3cc(F)ccc3F)CC2)nc2ccccc12 [Example 1158, cis-N-(2,5-difluorobenzyl)-4-{[4-(dimethylamino)quinazolin-2-yl]amino}cyclohexanecarboxamide] | < 50
26 | CN(C)c1nc(N[C@H]2CC[C@@H](NC(=O)C(O)c3cc(F)ccc3F)CC2)nc2ccccc12 (relative stereo) [Example 1115, 2-(2,5-difluorophenyl)-N-(cis-4-{[4-(dimethylamino)quinazolin-2-yl]amino}cyclohexyl)-2-hydroxyacetamide] | 50 to 200
27 | CN(C)c1nc(N[C@H]2CC[C@@H](NC(=O)c3ccc(Oc4cccc(Br)c4)nc3)CC2)nc2ccccc12 [Example 1072, 6-(3-bromophenoxy)-N-(cis-4-{[4-(dimethylamino)quinazolin-2-yl]amino}cyclohexyl)nicotinamide] | > 200
28 | CN(C)c1nc(N[C@H]2CC[C@@H](C(=O)NCc3ccc(Cl)cc3)CC2)nc2ccccc12 [Example 1155, cis-N-(4-chlorobenzyl)-4-{[4-(dimethylamino)quinazolin-2-yl]amino}cyclohexanecarboxamide] | < 50
29 | CN(C)c1nc(N[C@H]2CC[C@@H](NC(=O)C(O)c3ccc(F)c(F)c3)CC2)nc2ccccc12 (relative stereo) [Example 1108, 2-(3,4-difluorophenyl)-N-(cis-4-{[4-(dimethylamino)quinazolin-2-yl]amino}cyclohexyl)-2-hydroxyacetamide] | 50 to 200
